One assay concerns the target MELK (Homo sapiens, UniProt Q14680). Put plainly: Kinase assay (IMAP fluorescence polarization, FITC-labeled histone H3 peptide). Particulars: 50 micro-M ATP. It is filed as biochemical. In a few lines:
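Kinase (0.8 ng/μL) reacted with 100 nM FITC-histone H3 peptide and 50 μM ATP in 20 mM HEPES, 0.3 mM MgCl2, 2 mM DTT, 0.01% Tween-20, pH 7.4, for 1 hour at room temperature. Phosphorylation read by IMAP fluorescence polarization after adding binding solution; IC50 from four-parameter fit.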

The test system of the next assay is 22Rv1 cells. Briefly: Cell-based assay, anti-proliferative activity (Cell Counting Kit-8, 72 hours). Details: species or system human. The note with it: Homo sapiens, 22Rv1, 72 h, read-out: IC50 (μM) (22Rvl). The method, boiled down:
(§1)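 Cells seeded at 2,000–3,000 cells/well and exposed to candidate MELK inhibitors for 72 hours; growth measured with Cell Counting Kit-8. IC50 values calculated from the growth read-out.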
A general note: Tetrazolium dyes change colour on reduction, which living cells bring about.

The subject of the next assay is A549 cells. The assay is described as above. Details: species or system human. The note with it: Homo sapiens, A549, 72 h, read-out: IC50 (μM) (A549). In a few lines:
as §1

For the next assay, the system named is DU4475 cells. Described as above. More on the design: species or system human. Particulars: Homo sapiens, DU-4475, 72 h, read-out: IC50 (μM) (DU4475). In a few lines:
as §1

A further assay deals with T47D cells. The assay is described as above. Particulars: Homo sapiens, T47D, 72 h, read-out: IC50 (μM) (T47D). More on the design: species or system human. In a few lines: as §1
A further assay relates to HT1197 cells. Briefly: Cell-based assay, anti-proliferative activity, MELK-negative control (Cell Counting Kit-8, 72 hours). More on the design: species or system human. Particulars: Homo sapiens, HT1197, 72 h, read-out: IC50 (μM) (HTll97). The protocol:
100 micro-L of cell suspension was seeded onto 96-well microtiter plate (ViewPlate-96FTC, PerkinElmer). The initial cell concentration of 22Rv1, T47D, A549, DU4475, and HT1197 were 3,000 cells/well, 2,000 cells/well and 2,500 cells/well, respectively. Cellular growth was determined using Cell Counting Kit-8 (DOJINDO) at 72 hours after the exposure of the candidate inhibitors. […] Accurate IC50 values were calculated as described previously.

The structures appear in SMILES notation. Where a name gives a salt, the structure may show the parent alone.

Sequence of MELK (Q14680 whole entry, looked up): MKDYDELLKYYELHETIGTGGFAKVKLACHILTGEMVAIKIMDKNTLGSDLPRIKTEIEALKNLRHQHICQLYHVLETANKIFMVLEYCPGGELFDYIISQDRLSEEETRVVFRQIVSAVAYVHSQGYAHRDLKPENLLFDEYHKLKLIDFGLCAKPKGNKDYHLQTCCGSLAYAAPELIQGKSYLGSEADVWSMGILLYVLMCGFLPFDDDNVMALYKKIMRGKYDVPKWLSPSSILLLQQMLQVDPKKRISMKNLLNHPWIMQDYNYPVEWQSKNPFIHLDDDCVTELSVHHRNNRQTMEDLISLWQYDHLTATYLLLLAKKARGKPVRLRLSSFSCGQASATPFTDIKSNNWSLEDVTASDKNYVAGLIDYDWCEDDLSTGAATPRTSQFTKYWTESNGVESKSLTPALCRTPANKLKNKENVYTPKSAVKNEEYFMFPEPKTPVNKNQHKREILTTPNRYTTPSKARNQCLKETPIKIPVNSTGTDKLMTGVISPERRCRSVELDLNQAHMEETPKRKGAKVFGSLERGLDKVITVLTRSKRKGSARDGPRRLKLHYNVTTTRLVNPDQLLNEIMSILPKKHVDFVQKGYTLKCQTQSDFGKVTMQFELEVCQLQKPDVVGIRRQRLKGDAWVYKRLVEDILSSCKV

For orientation: IC50 means the midpoint of a concentration-inhibition curve. On to `CC(=O)c1cnc2ccc(-c3cc(Cl)c(O)c(Cl)c3)nc2c1N[C@H]1CC[C@H](N(C)C)CC1` [Example 2, 1-{6-(3,5-Dichloro-4-hydroxyphenyl)-4-[trans-4-(dimethylamino)cyclohexylamino]-1,5-naphthyridin-3-yl}ethanone dihydrochloride], for which the IC50 was found to be 0.0003 µM against MELK; 0.0032 µM in the assay with 22Rv1 cells; 0.004 µM in the assay on A549 cells; 0.0015 µM in the assay on DU4475 cells; 0.0018 µM in the assay on T47D cells; 0.19 µM in the assay with HT1197 cells.

As for `CC(=O)c1cnc2ccc(-c3cc(Cl)c(O)c(Cl)c3)nc2c1Nc1ccc(N2CCC[C@@H](N)C2)nc1` [Example 95, (R)-1-{4-[6-(3-Aminopiperidin-1-yl)pyridin-3-ylamino]-6-(3,5-dichloro-4-hydroxyphenyl)-1,5-naphthyridin-3-yl}ethanone trihydrochloride], the concentration for half-maximal inhibition (IC50) on MELK was 0.002 µM; in the assay on 22Rv1 cells it was 0.029 µM; in the assay with A549 cells, 0.088 µM; in the assay with DU4475 cells, 0.03 µM; in the assay with T47D cells it was 0.022 µM; in the assay on HT1197 cells, 1.9 µM.

For the compound `CN(C)C[C@H]1CC[C@H](Nc2c(C(=O)CO)cnc3ccc(-c4cc(Cl)c(O)c(Cl)c4)nc23)CC1` [Example 44, 1-[6-(3,5-Dichloro-4-hydroxyphenyl)-4-{trans-4-[(dimethylamino)methyl]cyclohexyl-amino}-1,5-naphthyridin-3-yl]-2-hydroxyethanone dihydrochloride], the IC50 is 0.0003 µM at MELK; 0.006 µM in the assay with 22Rv1 cells; 0.0067 µM with A549 cells; 0.0017 µM with DU4475 cells; 0.0029 µM with T47D cells; 0.2 µM in the assay with HT1197 cells.

On to `CN(C)C[C@H]1CC[C@H](Nc2c(C(=O)C3CCC3)cnc3ccc(-c4cc(F)c(O)c(Cl)c4)nc23)CC1` [Example 212, (6-(3-chloro-5-fluoro-4-hydroxyphenyl)-4-((4-((dimethylamino)methyl)cyclohexyl)amino)-1,5-naphthyridin-3-yl)(cyclobutyl)methanone dihydrochloride], for which the IC50 against MELK was 0.0016 µM; in the assay on 22Rv1 cells, 0.013 µM; in the assay on A549 cells, 0.014 µM; in the assay on DU4475 cells, 0.003 µM; in the assay with T47D cells, 0.0074 µM; in the assay on HT1197 cells, 0.014 µM.

Regarding `N[C@@H]1CCCN(c2ccc(Nc3c(C(=O)C4CC4)cnc4ccc(-c5cc(Cl)c(O)c(Cl)c5)nc34)cn2)C1` [Example 201, (R)-(4-{[6-(3-aminopiperidin-1-yl)pyridin-3-yl]amino}-6-(3,5-dichloro-4-hydroxyphenyl)-1,5-naphthyridin-3-yl) (cyclopropyl)methanone], the half-maximal inhibitory concentration (IC50) amounted to 0.00093 µM on MELK; 0.0061 µM in the assay with 22Rv1 cells; 0.0061 µM with A549 cells; 0.003 µM in the assay with DU4475 cells; 0.0025 µM with T47D cells; 0.032 µM with HT1197 cells.

For the compound `COc1cc(-c2ccc3ncc(S(C)(=O)=O)c(Nc4ccc(CN(C)C)cc4)c3n2)cc(Cl)c1O` [Example 18, 2-Chloro-4-(8-{4-[(dimethylamino)methyl]phenylamino}-7-(methylsulfonyl)-1,5-naphthyridin-2-yl)-6-methoxyphenol dihydrochloride], the 50% inhibitory concentration (IC50) at MELK was found to be 0.005 µM; in the assay on 22Rv1 cells it was 1 µM; in the assay with A549 cells, 0.69 µM; in the assay with DU4475 cells, 0.31 µM; with T47D cells it was 0.32 µM; with HT1197 cells, 3.8 µM.

Take `CC(=O)c1cnc2ccc(-c3cc(F)c(O)c(Cl)c3)nc2c1Nc1ccc(NCCN(C)C)nc1` [Example 39, 1-[6-(3-Chloro-5-fluoro-4-hydroxyphenyl)-4-{6-[2-(dimethylamino)ethylamino]pyridin-3-ylamino}-1,5-naphthyridin-3-yl]ethanone trihydrochloride]: the 50% inhibitory concentration (IC50) against MELK was determined as 0.03 µM; with 22Rv1 cells, 0.38 µM; with A549 cells, 0.44 µM; in the assay on DU4475 cells it was 0.19 µM; in the assay with T47D cells, 0.12 µM; in the assay on HT1197 cells, 10 µM.

For the compound `CC(=O)c1cnc2ccc(-c3cc(Cl)c(O)c(Cl)c3)nc2c1Nc1ccc(N2CCC[C@H](N)C2)nc1` [Example 71, (S)-1-(4-{[6-(3-Aminopiperidin-1-yl)pyridin-3-yl]amino}-6-(3,5-dichloro-4-hydroxyphenyl)-1,5-naphthyridin-3-yl)ethanone trihydrochloride], the IC50 worked out at 0.0005 µM against MELK; 0.014 µM in the assay with 22Rv1 cells; 0.09 µM in the assay on A549 cells; 0.008 µM with DU4475 cells; 0.0074 µM in the assay on T47D cells; 3.4 µM in the assay with HT1197 cells.

Consider `CC(=O)c1cnc2ccc(-c3cc(F)c(O)c(Cl)c3)nc2c1N[C@H]1CC[C@H](CN(C)C)CC1` [Example 7, 1-{6-(3-Chloro-5-fluoro-4-hydroxyphenyl)-4-({trans-4-[(dimethylamino)methyl]cyclohexyl}-amino)-1,5-naphthyridin-3-yl}ethanone dihydrochloride], for which the concentration for half-maximal inhibition (IC50) on MELK worked out at 0.0013 µM; in the assay with 22Rv1 cells it was 0.0061 µM; in the assay with A549 cells, 0.0097 µM; with DU4475 cells, 0.0036 µM; in the assay on T47D cells it was 0.0035 µM; in the assay with HT1197 cells, 0.11 µM.

Consider `CC(=O)c1cnc2ccc(-c3cc(Cl)c(O)c(Cl)c3)nc2c1N[C@H]1CC[C@H](CCN(C)C)CC1` [Example 9, 1-[6-(3,5-Dichloro-4-hydroxyphenyl)-4-({trans-4-[2-(dimethylamino)ethyl]cyclohexyl}amino)-1,5-naphthyridin-3-yl]ethanone dihydrochloride], for which the IC50 at MELK was determined as 0.0007 µM; with 22Rv1 cells it was 0.011 µM; in the assay with A549 cells, 0.013 µM; with DU4475 cells it was 0.0055 µM; in the assay on T47D cells, 0.0066 µM; with HT1197 cells it was 0.27 µM.

As for `CC(=O)c1cnc2ccc(-c3cc(Cl)c(O)c(Cl)c3)nc2c1N[C@H]1CC[C@H](CN2CCOCC2)CC1` [Example 47, 1-[6-(3,5-Dichloro-4-hydroxyphenyl)-4-{[trans-4-(morpholinomethyl)cyclohexyl]amino}-1,5-naphthyridin-3-yl]ethanone], the half-inhibitory concentration (IC50) stood at 0.01 µM at MELK; 0.034 µM with 22Rv1 cells; 0.02 µM in the assay with A549 cells; 0.009 µM in the assay with DU4475 cells; 0.015 µM in the assay with T47D cells; 0.16 µM in the assay with HT1197 cells.

On to `COc1cc(-c2ccc3ncc(C(C)=O)c(Nc4ccc(OCCN(C)C)nc4)c3n2)cc(Cl)c1O` [Example 23, 1-[6-(3-Chloro-4-hydroxy-5-methoxyphenyl)-4-{6-[2-(dimethylamino)ethoxy]pyridin-3-ylamino}-1,5-naphthyridin-3-yl]ethanone dihydrochloride], for which the IC50 came to 0.0089 µM against MELK; 1.3 µM in the assay with 22Rv1 cells; 0.47 µM in the assay with A549 cells; 0.41 µM in the assay on DU4475 cells; 0.38 µM in the assay with T47D cells; 8.9 µM in the assay on HT1197 cells.

For `CC(=O)c1cnc2ccc(-c3cc(Cl)c(O)c(Cl)c3)nc2c1Nc1ccc(CN2CCN(C)CC2)cc1` [Example 34, 1-(6-(3,5-Dichloro-4-hydroxyphenyl)-4-(4-((4-methylpiperazin-1-yl)methyl)-phenylamino)-1,5-naphthyridin-3-yl)ethanone trihydrochloride], the IC50 was determined as 0.0061 µM against MELK; 0.21 µM in the assay on 22Rv1 cells; 0.19 µM in the assay on A549 cells; 0.096 µM in the assay with DU4475 cells; 0.11 µM in the assay with T47D cells; 1.6 µM in the assay on HT1197 cells.

(Values after patent publication US9067937B2 (priority 2012, dated 2015).)
